Data set [1] addresses T1, 5-HT2A receptor (Homo sapiens, UniProt P28223). In words: Calcium ion mobility in cells stably expressing 5-HT2A receptors (Flp-In-CHO-5HT2A, FLIPR). It counts as cell-based. Further details: expressed in transfected cells. The following applies: Flp-In-CHO-5HT2A stable pool, 5HT stimulation.
Data set [2] has as its target T2, D3 receptor (Homo sapiens, UniProt P35462).
T2 construct: expressed in transfected cells
In words: cAMP content in cells stably expressing D3 receptors (CHO-D3, forskolin, HTRF). It counts as cell-based. (In TR-FRET formats the signal depends on donor and acceptor labels being close together.)

In data set [3] the target is T1, 5-HT2A receptor. In words: Radioligand binding assay, 5-HT2A receptor ([3H]-Ketanserin). Set-up: purchased PerkinElmer. The following applies: Human 5-HT2A Receptor membrane, [3H]-Ketanserin 2 nM; read-out: 5HT-2A Binding IC50. The method, then: Determination of the binding ability of the compounds of the
present invention to 5-HT2A receptor
The objective of this test example is to determine the affinity of the compounds for 5-HT2A receptor.
Experimental buffer: 50 mM Tris-HCl pH 7.4, 4 mM CaCl2; washing liquor: 50 mM Tris-HCl pH 7.4, stored at 4°C; 0.5% PEI solution: 0.5 g PEI dissolved in 100 mL ddH2O, 4°C storage of spare.
5 µL of the test compounds (0.005 nM to 100 nM, 10 concentrations in total) and 100 µL of buffer were added to a 96-well assay plate. 1.5 µL of cell membrane and 300 µL of buffer were added to each well, and the plate was shaken at 600 rpm for 5 minutes. 100 µL of a mixed solution of buffer and [^3H]-Ketanserin (final concentration of 2 nM) was added to the reaction system per well, and the plate was shaken at 600 rpm for 5 minutes and incubated at 27°C for 30 min. The […]-96 GF/B filter plate pre-incubated with 0.5% PEI for 1 h was washed twice with the buffer (1 mL/well). The cell membrane suspension was added to the […]-96 GF/B filter plate, washed 4 times, and incubated at 55°C for 10 min. 40 µL of ULTIMA GOLD was added to each well, and liquid scintillation counting was carried out.
(§1) The CPM (Counts per minute) values were determined by TopCount. […] The 10 concentrations of the compound were from 100 nM to 0.005 nM after 3-fold dilution of the reaction system. The percent inhibition rate and ten-point concentration data were fitted to the parametric nonlinear logistic equation by using GraphPad prism to calculate the IC50 values of the compound.

Data set [4] concerns the target T3, dopamine D3 receptor (Homo sapiens, UniProt P35462).
T3 construct: purchased PerkinElmer ES-173-M400UA
In words: Radioligand binding assay, dopamine D3 receptor ([3H]-methylspiperone). The following applies: Human Dopamine D3 Receptor membrane, [3H]-methylspiperone 0.5 nM. On the procedure: Determination of the binding ability of the compounds of the present invention to dopamine D3 receptor
The objective of this test example is to determine the affinity of the compounds for dopamine D3 receptor.
Experimental buffer: 50 mM Tris-HCl pH 7.4, 10 mm MgCl2; washing liquor: 50 mM Tris-HCl pH 7.4, stored at 4°C; 0.5% PEI solution: 0.5 g PEI dissolved in 100 mL ddH2O, 4°C storage of spare.
5 µL of the test compounds (0.005 nM to 100 nM, 10 concentrations in total) and 100 µL of buffer were added to a 96-well assay plate. 1 µL of cell membrane and 300 µL of buffer were added to each well, and the plate was shaken at 600 rpm for 5 minutes. 100 µL of a mixed solution of buffer and [^3H]-methylspiperone (final concentration of 0.5 nM) was added to the reaction system per well, and the plate was shaken at 600 rpm for 5 minutes and incubated at 27°C for 30 min. The UNIFII,TER-96 GF/B filter plate pre-incubated with 0.5% PEI for 1 h was washed twice with the buffer (1 mL/well). The cell membrane suspension was added to the […]-96 GF/B filter plate, washed 4 times, and incubated at 55°C for 10 min. 40 µL of ULTIMA GOLD was added to each well, and liquid scintillation counting was carried out.
as §1

Data set [5] can be described thus: Crystal form stability study of hydrochloride for 30 days. It counts as physicochemical. The following applies: HPLC peak area normalization. On the procedure: The diluent 80% methanol solution was added to prepare a solution containing about 0.5 mg/mL hydrochloride. The mixture was sonicated for 30min to produce a clear solution. 1mL of the soluion was filtered and measured by HPLC. See "2.3.4" for the HPLC analysis method. The content of related substances was calculated according to the peak area normalization method, and the results are shown in Table 32 below. Table 32 HPLC data of hydrochloride in stability experimental conditions for 30 days

A short description of data set [6]: Stability study of salt (light, high temperature, high humidity; 5 and 10 days; HPLC related substances). It is filed as physicochemical. The source says: The chromatographic peak area normalization method was used to calculate the changes of related substances. [table]
The nature of data set [7]: Solubility of hydrochloride and free base in different media (37°C, 24 hours, HPLC). It counts as physicochemical. The following applies: for solubility at 24 h: thermodynamic from solid. The method, then:
The glass bottle was shaken overnight on an electrothermal constant temperature shaking tank, and the temperature was set to 37°C. After 24 hours, the sample solution was filtered with a 0.45 µm mixed water fiber filter membrane, and the subsequent filtrate was taken to test its content by HPLC. HPLC detection methods are described in "Stability Study Conditions". Table 24 Solubility of hydrochloride and free base in different pH buffers

Data set [8] in a line: Salt form quantification (HPLC-ELSD). It counts as physicochemical. The following applies: HPLC-ELSD, external standard method. On the procedure: The number of acids binding in the salt form was quantified by HPLC-ELSD test. An appropriate amount of NaCl was weighed, and a series of linear solutions of different concentrations with the diluent acetonitrile-water (50:50) was prepared. […] The above linear solution and hydrochloride samples solution was taken to filter. [table]

Data set [9] is described as follows: Hygroscopicity study of salt (DVS). It is filed as physicochemical. The following applies: 25°C, 0-95-0% RH. The source says: The hygroscopicity of a drug refers to the characteristics of the drug's ability or degree of water absorption at a certain temperature and humidity. […] (DVS) was used to characterize the ability of drugs to absorb water under different humidity conditions. The instrument parameters are detailed in the table below. [table]

Some results are limits rather than exact numbers.

The values that follow come from EP4332093A1, “SALT CONTAINING PIPERAZINE POLYCYCLIC DERIVATIVE, CRYSTAL FORM THEREOF, PREPARATION METHOD THEREFOR, AND USE THEREOF” (Shanghai Hansoh Biomedical Co., Ltd., priority 2021, dated 2022).

T3 sequence (P35462 whole entry): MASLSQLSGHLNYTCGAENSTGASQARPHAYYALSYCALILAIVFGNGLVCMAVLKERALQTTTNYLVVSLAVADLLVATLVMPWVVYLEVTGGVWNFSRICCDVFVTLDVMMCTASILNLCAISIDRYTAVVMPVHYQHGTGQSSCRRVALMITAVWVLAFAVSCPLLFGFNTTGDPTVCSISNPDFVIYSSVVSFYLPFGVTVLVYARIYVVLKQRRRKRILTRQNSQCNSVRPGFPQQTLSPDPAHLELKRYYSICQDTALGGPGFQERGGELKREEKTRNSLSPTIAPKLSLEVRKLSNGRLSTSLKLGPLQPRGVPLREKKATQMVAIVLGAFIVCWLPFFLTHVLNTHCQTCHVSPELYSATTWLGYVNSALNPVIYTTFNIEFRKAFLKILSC
T2 sequence (P35462 whole entry): as above
T1 sequence (P28223 whole entry): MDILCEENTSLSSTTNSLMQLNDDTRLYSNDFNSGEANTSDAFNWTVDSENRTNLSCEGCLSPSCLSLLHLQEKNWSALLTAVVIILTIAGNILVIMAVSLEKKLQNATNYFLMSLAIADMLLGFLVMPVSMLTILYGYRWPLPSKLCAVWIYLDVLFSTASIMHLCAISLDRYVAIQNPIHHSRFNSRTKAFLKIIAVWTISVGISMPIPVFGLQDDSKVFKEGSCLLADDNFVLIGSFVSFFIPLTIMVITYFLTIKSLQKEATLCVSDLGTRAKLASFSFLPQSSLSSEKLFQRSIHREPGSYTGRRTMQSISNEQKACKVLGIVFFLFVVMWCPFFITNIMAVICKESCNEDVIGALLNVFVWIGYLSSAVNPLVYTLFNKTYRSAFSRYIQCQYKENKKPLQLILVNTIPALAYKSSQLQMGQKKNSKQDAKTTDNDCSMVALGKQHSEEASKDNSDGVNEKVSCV

For orientation: IC50 means the point on the concentration scale where inhibition reaches its midpoint. For orientation: EC50 means the concentration at which the effect is half-maximal. High values mean weaker potency, low ones greater potency. `Cc1nc(C(=O)N[C@H]2C[C@H](CCN3CCN(c4cccc(Cl)c4Cl)CC3)C2)co1` [Example 18A, N-(Trans-3-(2-(4-(2,3-dichlorophenyl)piperazin-1-yl)ethyl)cyclobutyl)-2-methyloxazole-4-carboxamide]: the figures for the concentration for half-maximal inhibition (IC50) in data set [1], in data set [3] and in data set [4] were 6.44 nM, 1.37 nM and 0.42 nM, respectively. The EC50 in [2] is 1.4 nM.

In general, solubility refers to how much of the substance goes into solution per volume. Take `Cl.O=C(N[C@H]1C[C@H](CCN2CCN(c3cccc(Cl)c3Cl)CC2)C1)c1ncco1` [hydrochloride]: the “Area% at RRT 1.00” value is given as 99.44% in data set [5] (0d); 99.43% in data set [5] (GS-30d); 99.51% in [5] (GW-30d); 99.43% in data set [5] (GZ-30d); 99.46% in data set [5] (WS-30d). Further, the “Area% at RRT 1.07” value in data set [5] (0d) is recorded as 0.07%; in data set [5] (GS-30d), 0.11%; in data set [5] (GW-30d), 0.08%; in data set [5] (GZ-30d) it was 0.09%; in data set [5] (WS-30d), 0.09%. Further, the “Area% at RRT 1.93” value in data set [5] (0d) is given as 0.42%; in data set [5] (GS-30d), 0.39%; in data set [5] (GW-30d), 0.41%; in data set [5] (GZ-30d), 0.41%; in data set [5] (WS-30d), 0.38%. Moreover, the “Area% at RRT 2.43” value in data set [5] (0d) is 0.07%; in data set [5] (GS-30d), 0.07%; in data set [5] (GZ-30d), 0.08%; in [5] (WS-30d), 0.07%. The “stability (growth of impurities)” value in data set [6] is listed as “good stability”. The “solubility in different pH buffers” value in data set [7] is given as “pH-dependent, with better solubility under acidic conditions, poor solubility under neutral or alkaline conditions”. Besides, the solubility at 24 h in [7] (aqueous buffer, Buffer pH 3) was greater than 1000 µg/mL; in data set [7] (aqueous buffer, Buffer pH 4), greater than 1000 µg/mL; in data set [7] (aqueous buffer, Buffer pH 5), 863 µg/mL; in [7] (aqueous buffer, Buffer pH 6) it was 187 µg/mL; in data set [7] (aqueous buffer, Buffer pH 7) it was 14 µg/mL; in [7] (aqueous buffer, Buffer pH 8), 1 µg/mL. The solubility at 24 h in data set [7] (fassgf or other biorelevant, FaSSCoF) was greater than 1000 µg/mL; in data set [7] (fassgf or other biorelevant, FaSSGF) it was 117 µg/mL; in [7] (fassgf or other biorelevant, FeSSCoF) it was greater than 1000 µg/mL; in [7] (simulated gastric fluid, Buffer pH 1) it was greater than 1000 µg/mL; in [7] (simulated gastric fluid, Buffer pH 2), greater than 1000 µg/mL; in data set [7] (FaSSIF) it was greater than 1000 µg/mL. Also, the solubility at 24 h in data set [7] (FeSSIF) is greater than 1000 µg/mL; in data set [7] (water, H2O), greater than 1000 µg/mL. Further, the “solubility in water compared with free base” value in data set [7] (water) is “greatly improved”. Besides, the “Determination of Cl-percentage content in hydrochloride” value is given as 7.82% in data set [8] (Batch 1) and 7.90% in [8] (Batch 2). In addition, in [9], the “hygroscopicity (DVS)” value is reported as “slightly hygroscopic”.

Turning to `Cc1cc(C(=O)NC2CC(CCN3CCN(c4cccc(Cl)c4Cl)CC3)C2)on1` (stereo not shown) [Example 14A], the 50% inhibitory concentration (IC50) in [1] is 4.37 nM; in data set [3], 1.35 nM; in data set [4], 0.34 nM. Moreover, in data set [2], the EC50 turned out to be 0.9 nM.

`CN(C(=O)NC1CC(CCN2CCN(c3cccc(Cl)c3Cl)CC2)C1)C1CC1` (stereo not shown) [Example 20, 1-Cyclopropyl-3-(3-(2-(4-(2,3-dichlorophenyl)piperazin-1-yl)ethyl)cyclobutyl)-1-me thylurea]: the half-maximal inhibitory concentration (IC50) in data set [1] was found to be 11.6 nM; in data set [3], 19.1 nM; in [4] it was 1.99 nM. This molecule also showed a concentration giving a half-maximal response (EC50) in [2] of 1 nM.

Regarding `CC(C)(O)C(=O)NC1CC(CCN2CCN(c3cccc(Cl)c3Cl)CC2)C1` (stereo not shown) [Example 4A], the IC50 in data set [1] was determined as 39 nM; in [3] it was 41.5 nM; in data set [4], 0.95 nM. The midpoint of the response in data set [2], the EC50, lay at 0.4 nM.

In the case of `O=C(N[C@H]1C[C@H](CCN2CCN(c3cccc(Cl)c3Cl)CC2)C1)c1ccno1` [Example 15A, N-(Trans-3-(2-(4-(2,3-dichlorophenyl)piperazin-1-yl)ethyl)cyclobutyl)isoxazole-5-ca rboxamide], the IC50 in [1] came out at 3.14 nM; in [3] it was 0.98 nM; in data set [4], 0.31 nM. For the same molecule, it took 0.7 nM to reach a half-maximal effect in data set [2] (EC50).

On to `O=C(N[C@H]1C[C@H](CCN2CCN(c3cccc(Cl)c3Cl)CC2)C1)c1ccon1` [Example 17A, N-(Trans-3-(2-(4-(2,3-dichlorophenyl)piperazin-1-yl)ethyl)cyclobutyl)isoxazole-3-ca rboxamide], for which the 50% inhibitory concentration (IC50) in data set [1] amounted to 20.8 nM; in data set [3] it was 1.92 nM; in [4] it was 0.3 nM. Also, a half-maximal response in data set [2] (EC50) required 1.1 nM.

In the case of `Cc1cnoc1C(=O)N[C@H]1C[C@H](CCN2CCN(c3cccc(Cl)c3Cl)CC2)C1` [Example 13A, N-(Trans-3-(2-(4-(2,3-dichlorophenyl)piperazin-1-yl)ethyl)cyclobutyl)-4-methylisox azole-5-carboxamide], the IC50 was 11.7 nM in data set [1], 1.81 nM in data set [3] and 1.36 nM in data set [4]. For the same molecule, the EC50 in [2] was 1.1 nM.
